What was measured:
Assay in all cases: relative viability (nuclei count vs DMSO), 5 days (fraction); higher = more cells survive
HARA = system: HARA
Summary of the method: (§1)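 Medians of duplicate plates are given as relative viability. That measure is the nuclei count in treated wells divided by the count in vehicle wells. Counts were taken on 4× images of lung cancer cell lines in 1536-well plates, 5 days after pin-tool dosing the day after seeding with one drug alone or a fixed anchor-drug dose plus five library-drug doses (not always all listed) in √10 steps.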

201T = system: 201T
Summary of the method: as §1

SW 900 = system: SW 900
Summary of the method: as §1

PC-14 = system: PC-14
Summary of the method: as §1

COR-L 105 = system: COR-L 105
Summary of the method: as §1

BEN = system: BEN
Summary of the method: as §1

NCI-H441 = system: NCI-H441
Summary of the method: as §1

NCI-H2023 = system: NCI-H2023
Summary of the method: as §1

LU99A = system: LU99A
Summary of the method: as §1

NCI-H838 = system: NCI-H838
Summary of the method: as §1

NCI-H1650 = system: NCI-H1650
Summary of the method: as §1

COR-L23 = system: COR-L23
Summary of the method: as §1

Compound: Clc1ccc(Nc2nnc(Cc3ccncc3)c3ccccc23)cc1 [Vatalanib] + CCNC(=O)c1noc(-c2cc(C(C)C)c(O)cc2O)c1-c1ccc(CN2CCOCC2)cc1 [Luminespib] (partner 0.01 µM)
- relative viability (HARA; first compound 1.265 µM): 0.738
- relative viability (HARA; first compound 4 µM): 0.591
- relative viability (201T; first compound 0.04 µM): 1.07
- relative viability (201T; first compound 0.1265 µM): 1.05
- relative viability (201T; first compound 0.4 µM): 1.13
- relative viability (201T; first compound 1.265 µM): 1.04
- relative viability (201T; first compound 4 µM): 1.13
- relative viability (SW 900; first compound 0.1265 µM): 0.178
- relative viability (SW 900; first compound 0.4 µM): 0.224
- relative viability (SW 900; first compound 1.265 µM): 0.166
- relative viability (SW 900; first compound 4 µM): 0.192
- relative viability (PC-14; first compound 0.04 µM): 0.155
- relative viability (PC-14; first compound 0.1265 µM): 0.19
- relative viability (PC-14; first compound 1.265 µM): 0.158
- relative viability (PC-14; first compound 4 µM): 0.149
- relative viability (COR-L 105; first compound 0.04 µM): 0.814
- relative viability (COR-L 105; first compound 0.1265 µM): 0.7
- relative viability (COR-L 105; first compound 0.4 µM): 0.877
- relative viability (COR-L 105; first compound 1.265 µM): 0.843
- relative viability (COR-L 105; first compound 4 µM): 0.74
- relative viability (BEN; first compound 0.04 µM): 0.218
- relative viability (BEN; first compound 0.1265 µM): 0.265
- relative viability (BEN; first compound 0.4 µM): 0.514
- relative viability (BEN; first compound 1.265 µM): 0.399
- relative viability (BEN; first compound 4 µM): 0.404
- relative viability (NCI-H441; first compound 0.04 µM): 0.367
- relative viability (NCI-H441; first compound 0.1265 µM): 0.251
- relative viability (NCI-H441; first compound 0.4 µM): 0.382
- relative viability (NCI-H441; first compound 1.265 µM): 0.377
- relative viability (NCI-H441; first compound 4 µM): 0.354
- relative viability (NCI-H2023; first compound 0.04 µM): 0.58
- relative viability (NCI-H2023; first compound 0.1265 µM): 0.66
- relative viability (NCI-H2023; first compound 0.4 µM): 0.762
- relative viability (NCI-H2023; first compound 1.265 µM): 0.537
- relative viability (NCI-H2023; first compound 4 µM): 0.688
- relative viability (LU99A; first compound 0.04 µM): 0.255
- relative viability (LU99A; first compound 0.1265 µM): 0.238
- relative viability (LU99A; first compound 0.4 µM): 0.264
- relative viability (LU99A; first compound 1.265 µM): 0.286
- relative viability (LU99A; first compound 4 µM): 0.246
- relative viability (NCI-H838; first compound 0.04 µM): 0.326
- relative viability (NCI-H838; first compound 0.1265 µM): 0.267
- relative viability (NCI-H838; first compound 0.4 µM): 0.244
- relative viability (NCI-H838; first compound 1.265 µM): 0.305
- relative viability (NCI-H838; first compound 4 µM): 0.378
- relative viability (NCI-H1650; first compound 0.04 µM): 0.21
- relative viability (NCI-H1650; first compound 0.1265 µM): 0.193
- relative viability (NCI-H1650; first compound 0.4 µM): 0.206
- relative viability (NCI-H1650; first compound 1.265 µM): 0.203
- relative viability (NCI-H1650; first compound 4 µM): 0.208
- relative viability (COR-L23; first compound 0.04 µM): 0.715
- relative viability (COR-L23; first compound 0.1265 µM): 0.666
- relative viability (COR-L23; first compound 0.4 µM): 0.835
- relative viability (COR-L23; first compound 1.265 µM): 0.646
- relative viability (COR-L23; first compound 4 µM): 0.588

— the supplement of paper PMC10307832
